Laboratory results reported in patent publication US20260158011A1 (Achieve Life Sciences, Inc., priority 2023, published 2026).
“And” between values parts separate entries of the source, which are not always exact repeats. Equal entries are not always repeated. Where two headings read alike, the source gives them in different places.

System: adult e-cigarette users
Details: for Relative Risk, vaping cessation Week 9 to 12: Row 1 (X = 0) over Row 2 (X = 1); for Common Relative Risk, Logit / Common Relative Risk, Mantel-Haenszel: X = 0 over X = 1, controlling for S; for Relative Risk, Logit / Relative Risk, Mantel-Haenszel: X = 0 over X = 1, no stratifier
Method: This Example describes a Phase 2 ORCA-V1 trial evaluated 160 adult e-cigarette users at 5 clinical trial locations in the United States. […] ORCA-V1 participants were randomized to receive 3 mg cytisinicline three times daily or placebo for 12 weeks in combination with standard cessation behavioral support. The dose and administration of cytisinicline in the ORCA-V1 study is identical to that used in the Phase 3 registrational trials for smoking cessation.
ORCA-V1 evaluated the efficacy and safety of 3 mg cytisinicline dosed three times daily for 12 weeks compared to placebo in 160 adult users of e-cigarettes or nicotine vapes. All participants received behavioral support for nicotine cessation.
Subjects were stratified on whether they have smoked >100 cigarettes in their lifetime (yes vs no) (FIG. 57). […] Missing data may be assumed as reported vaping.
Key inclusion criteria consisted of daily electronic cigarette usage (age ≥18 years): willing to bring e-cigarette or nicotine device used to clinical site and document specific product type, flavor, and nicotine level. Individuals were required to test positive for cotinine using the Alere iScreen® Oral Fluid Screening Device (Positive testing at 30 ng/mL cotinine level). Individuals required to be willing to set quit date within 7-14 days of after randomization and to participate in vaping cessation behavioral support provided throughout the study.
Key exclusion criteria included those currently smoking, or having smoked within 4 weeks prior to study randomization, and those with Expired Carbon Monoxide (CO) levels ≥10 ppm, indicating recent combustible tobacco use (i.e., no dual users). Those with clinically abnormal laboratory values were also excluded, as well as those with positive urinary screen for illicit drugs (THC not included in screen). Those with uncontrolled hypertension (BP 160/100 mmHg), abnormal ECG, or recent acute myocardial infarction, stroke, or heart failure admission in past 3 months were excluded. Psychiatric exclusions included (1) schizophrenia or bipolar disorder, (2) current moderate to severe depression symptoms, (3) high risk of suicide ideation. Pregnant or breast-feeding women or unwilling to use acceptable methods of birth control during the study were also excluded.
The first measurement consisted of biochemically verified continuous vaping abstinence during the last 4 weeks of treatment after 12 weeks of cytisinicline treatment vs placebo. Vaping abstinence during weeks 9-12 was verified with no reported vaping with weekly saliva cotinine levels <10 ng/mL.
A second measurement consisted of biochemically verified continuous vaping abstinence at any time during treatment, with vaping abstinence at Week 3-6 or Week 6-9 for of cytisinicline treatment vs placebo. 7-day point prevalence rates were compared for vaping abstinence (Week 2 to 12) (FIG. 62). An additional measurement included reduction in daily vaping as measured by cotinine, where cytisinicline treatment vs placebo for a reduction in nicotine vaping using weekly quantitative cotinine levels from Week 2 to Week 12. Safety was assessed by adverse effects and serious adverse effects, considering number, severity, and attribution to study drug.

[1] = 3 mg cytisinicline TID 12 weeks
[2] = All Randomized Set, Cytisinicline 12 Weeks N = 107, saliva cotinine <10 ng/mL
[3] = X = 1, Table of X by Y, all randomized, 107 subjects in row
[4] = X = 1, stratum S = 0 (>100 cigarettes = No), 30 subjects in row
[5] = X = 1, stratum S = 1 (>100 cigarettes = Yes), 77 subjects in row
[6] = share of all N = 107 of the arm
[7] = vs placebo, no stratifier, N=160, vaping cessation Week 9 to 12

O=c1cccc2n1C[C@@H]1CNC[C@H]2C1 [cytisine, (−)-Cytisine]
Odds ratio versus placebo, vaping cessation weeks 9-12, primary analysis with prospective stratification factor [1]: 2.6 and 2.64 | Odds ratio versus placebo, vaping cessation weeks 9-12, site as a stratification factor [1]: 3.03 | Odds ratio versus placebo, vaping cessation weeks 9-12, without any stratification factor [1]: 2.62 | Vaping cessation rate during weeks 9-12 (3 mg cytisinicline TID 12 weeks, saliva cotinine <10 ng/mL): 31.8% | Continuous Vaping Abstinence Week 9 to Week 16, n (%) (12 Weeks arm N = 107, All Randomized Set): 25 (23.4) n (%) | Vaping Cessation from Week 3 to Week 6, percent of subjects [2]: 24.3% | Vaping Cessation from Week 6 to Week 9, percent of subjects [2]: 30.8% | Vaping Cessation From Week 9 to Week 12, percent of subjects (All Randomized Set, Cytisinicline 12 wks N = 107, saliva cotinine <10 ng/mL): 31.8% | 7-Day Point Prevalence Abstinence, n (%) (Week 2, 12 Weeks arm N = 107, All Randomized Set): 15 (14.0) n (%) | 7-Day Point Prevalence Abstinence, Difference in Proportions (Week 2, vs placebo (N = 53)): 0.06 | 7-Day Point Prevalence Abstinence, Odds Ratio (Week 2, vs placebo (N = 53)): 2.00 | 7-Day Point Prevalence Abstinence, n (%) (Week 3, 12 Weeks arm N = 107, All Randomized Set): 36 (33.6) n (%) | 7-Day Point Prevalence Abstinence, Difference in Proportions (Week 3, vs placebo (N = 53)): 0.11 | 7-Day Point Prevalence Abstinence, Odds Ratio (Week 3, vs placebo (N = 53)): 1.73 | 7-Day Point Prevalence Abstinence, n (%) (Week 4, 12 Weeks arm N = 107, All Randomized Set): 53 (49.5) n (%) | 7-Day Point Prevalence Abstinence, Difference in Proportions (Week 4, vs placebo (N = 53)): 0.25 | 7-Day Point Prevalence Abstinence, Odds Ratio (Week 4, vs placebo (N = 53)): 3.02 | 7-Day Point Prevalence Abstinence, n (%) (Week 5, 12 Weeks arm N = 107, All Randomized Set): 45 (42.1) n (%) | 7-Day Point Prevalence Abstinence, Difference in Proportions (Week 5, vs placebo (N = 53)): 0.14 | 7-Day Point Prevalence Abstinence, Odds Ratio (Week 5, vs placebo (N = 53)): 1.84 | 7-Day Point Prevalence Abstinence, n (%) (Week 6, 12 Weeks arm N = 107, All Randomized Set): 44 (41.1) n (%) | 7-Day Point Prevalence Abstinence, Difference in Proportions (Week 6, vs placebo (N = 53)): 0.17 | 7-Day Point Prevalence Abstinence, Odds Ratio (Week 6, vs placebo (N = 53)): 2.15 | 7-Day Point Prevalence Abstinence, n (%) (Week 7, 12 Weeks arm N = 107, All Randomized Set): 52 (48.6) n (%) | 7-Day Point Prevalence Abstinence, Difference in Proportions (Week 7, vs placebo (N = 53)): 0.26 | 7-Day Point Prevalence Abstinence, Odds Ratio (Week 7, vs placebo (N = 53)): 3.23 | 7-Day Point Prevalence Abstinence, n (%) (Week 8, 12 Weeks arm N = 107, All Randomized Set): 46 (43.0) n (%) | 7-Day Point Prevalence Abstinence, Difference in Proportions (Week 8, vs placebo (N = 53)): 0.18 | 7-Day Point Prevalence Abstinence, Odds Ratio (Week 8, vs placebo (N = 53)): 2.32 | 7-Day Point Prevalence Abstinence, n (%) (Week 9, 12 Weeks arm N = 107, All Randomized Set): 45 (42.1) n (%) | 7-Day Point Prevalence Abstinence, Difference in Proportions (Week 9, vs placebo (N = 53)): 0.18 | 7-Day Point Prevalence Abstinence, Odds Ratio (Week 9, vs placebo (N = 53)): 2.23 | 7-Day Point Prevalence Abstinence, n (%) (Week 10, 12 Weeks arm N = 107, All Randomized Set): 44 (41.1) n (%) | 7-Day Point Prevalence Abstinence, Difference in Proportions (Week 10, vs placebo (N = 53)): 0.13 | 7-Day Point Prevalence Abstinence, Odds Ratio (Week 10, vs placebo (N = 53)): 1.77 | 7-Day Point Prevalence Abstinence, n (%) (Week 11, 12 Weeks arm N = 107, All Randomized Set): 40 (37.4) n (%) | 7-Day Point Prevalence Abstinence, Difference in Proportions (Week 11, vs placebo (N = 53)): 0.13 | 7-Day Point Prevalence Abstinence, Odds Ratio (Week 11, vs placebo (N = 53)): 1.84 | 7-Day Point Prevalence Abstinence, n (%) (Week 12, 12 Weeks arm N = 107, All Randomized Set): 41 (38.3) n (%) | 7-Day Point Prevalence Abstinence, Difference in Proportions (Week 12, vs placebo (N = 53)): 0.16 | 7-Day Point Prevalence Abstinence, Odds Ratio (Week 12, vs placebo (N = 53)): 2.12 | Vaping cessation Week 9 to 12, Row Pct Y = 0 (failure) (X = 1, Table of X by Y, all randomized): 68.22 Pct | Vaping cessation Week 9 to 12, Frequency Y = 0 (failure) [3]: 73 | Vaping cessation Week 9 to 12, Row Pct Y = 1 (success) [3]: 31.78 Pct | Vaping cessation Week 9 to 12, Row Pct Y = 0 (failure) (X = 1, stratum S = 0 (>100 cigarettes = No)): 63.33 Pct | Vaping cessation Week 9 to 12, Frequency Y = 0 (failure) [4]: 19 | Vaping cessation Week 9 to 12, Row Pct Y = 1 (success) [4]: 36.67 Pct | Vaping cessation Week 9 to 12, Row Pct Y = 0 (failure) (X = 1, stratum S = 1 (>100 cigarettes = Yes)): 70.13 Pct | Vaping cessation Week 9 to 12, Frequency Y = 0 (failure) [5]: 54 | Vaping cessation Week 9 to 12, Row Pct Y = 1 (success) [5]: 29.87 Pct | Column 1 Risk Estimates, Risk, Row 2 (Y = 0 (failure of vaping cessation Week 9 to 12), X = 1, N=160): 0.6822 | Relative Risk, vaping cessation Week 9 to 12 (Y = 0 (failure), stratum S = 0, N=45): 1.2632 | Relative Risk, vaping cessation Week 9 to 12 (Y = 0 (failure), stratum S = 1, N=115): 1.2383 | Common Relative Risk, Logit (Y = 0 (failure), N=160): 1.2435 | Common Relative Risk, Mantel-Haenszel (Y = 0 (failure), N=160): 1.2448 | Relative Risk, Logit (Y = 0 (failure), N=160): 1.2445 | Relative Risk, Mantel-Haenszel (Y = 0 (failure), N=160): 1.2445 | Relative Risk, vaping cessation Week 9 to 12 (Y = 1 (success), stratum S = 0, N=45): 0.5455 | Relative Risk, vaping cessation Week 9 to 12 (Y = 1 (success), stratum S = 1, N=115): 0.4405 | Column 2 Risk Difference (Row 1-Row 2) (Y = 1 (success), X = 0 minus X = 1, N=160): −0.1668 | Common Relative Risk, Logit (Y = 1 (success), N=160): 0.4784 | Common Relative Risk, Mantel-Haenszel (Y = 1 (success), N=160): 0.4747 | Relative Risk, Logit (Y = 1 (success), N=160): 0.4750 | Relative Risk, Mantel-Haenszel (Y = 1 (success), N=160): 0.4750 | Column 2 Risk Estimates, Risk, Row 2 (Y = 1 (vaping cessation Week 9 to 12), X = 1, N=160): 0.3178 | Difference in Proportions, Vaping Cessation from Week 3 to Week 6 (placebo group as reference): 0.09 | Difference in Proportions, Vaping Cessation from Week 6 to Week 9 (placebo group as reference): 0.14 | Odds Ratio, Vaping Cessation from Week 3 to Week 6 (placebo group as reference): 1.81 | Odds Ratio, Vaping Cessation from Week 6 to Week 9 (placebo group as reference): 2.18 | Marginal Difference in Proportions, Vaping Cessation from Week 9 to Week 12 (placebo group as reference, All Randomized Set): 0.17 | Vaping Cessation From Week 9 to Week 12, value in parentheses, >100 Cigarettes smoke in Lifetime = No [6]: 10.3 | Vaping Cessation From Week 9 to Week 12, value in parentheses, >100 Cigarettes smoke in Lifetime = Yes [6]: 21.5 | Vaping Cessation From Week 9 to Week 12, number of subjects, >100 Cigarettes smoke in Lifetime = No (stratum S = 0 (N=45; 30 on cytisinicline), Frequency X = 1, Y = 1 in FREQ table): 11 | Vaping Cessation From Week 9 to Week 12, number of subjects, >100 Cigarettes smoke in Lifetime = Yes (stratum S = 1 (N=115; 77 on cytisinicline), Frequency X = 1, Y = 1 in FREQ table): 23 | Continuous Vaping Abstinence Week 9 to Week 16, Difference in Proportions (vs placebo (N = 53)): 0.10 | Continuous Vaping Abstinence Week 9 to Week 16, Odds Ratio (vs placebo (N = 53)): 2.00 | Common Odds Ratio (Mantel-Haenszel), vaping cessation Week 9 to 12 (vs placebo, controlling for S (>100 Cigarettes Smoked in Lifetime no, yes), N=160, listed as Cytisinicline): 2.6375 and 2.64 | Common Odds Ratio (Logit), vaping cessation Week 9 to 12 (vs placebo, controlling for S, N=160): 2.6304 | Common Odds Ratio (Logit), summary statistics for X by Y [7]: 2.6199 | Common Odds Ratio (Mantel-Haenszel), summary statistics for X by Y [7]: 2.6199 | Odds Ratio, vaping cessation Week 9 to 12 (vs placebo, stratum S = 0 (>100 cigarettes = No), N=45): 2.3158 | Odds Ratio, vaping cessation Week 9 to 12 (vs placebo, stratum S = 1 (>100 cigarettes = Yes), N=115): 2.8111
